Reference: patent US6914045B2, “Glycopeptide antibiotics” (Wyeth Holdings Corporation, priority 2001, dated 2005)
Converted amounts (≈) assume the structure as drawn. Where two headings read alike, the source gives them in different places. Values belong to the compound of their own block, whether it stands above or below them.

Tests used:
Experiment in all cases: in vitro antibacterial evaluation, MIC by broth dilution
Format in all cases: cell-based
Escherichia coli = test system: Escherichia coli
Staphylococcus sp. = test system: Staphylococcus sp.
Method in brief: (§1)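 Step 1: dilute antibiotic across 64-0.06 μg/mL in Muller-Hinton II […]. Step 2: inoculate at 5×10^5 CFU/mL.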

Enterococcus sp. = test system: Enterococcus sp.
Method in brief: as §1

Streptococcus sp. = test system: Streptococcus sp.
Method in brief: as §1

[1] = broth dilution, 18 hours at 35° C.

MIC Escherichia coli (ATCC 25922) (Escherichia coli; 18 hours at 35° C.): >128 µg/mL | MIC Escherichia coli (GC 4559) (Escherichia coli; 18 hours at 35° C.): >128 µg/mL | MIC Escherichia coli (GC 4560) (Escherichia coli; 18 hours at 35° C.): >128 µg/mL | MIC Coagulase Negative Staphylococcus (GC 4547) (Staphylococcus sp.; [1]): >128 µg/mL | MIC Coagulase Negative Staphylococcus (GC 4548) (Staphylococcus sp.; [1]): >128 µg/mL | MIC Coagulase Negative Staphylococcus (GC 4549) (Staphylococcus sp.; [1]): >128 µg/mL | MIC Coagulase Negative Staphylococcus (GC 4551) (Staphylococcus sp.; [1]): >128 µg/mL | MIC Coagulase Negative Staphylococcus (GC 6257) (Staphylococcus sp.; [1]): >128 µg/mL | MIC Staphylococcus aureus-SMITH (GC 4543) (Staphylococcus sp.; [1]): >128 µg/mL | MIC Staphylococcus aureus-SMITH (GC 4543) (Staphylococcus sp.; broth dilution, 18 hours at 35° C., strain GC 4543): >128 µg/mL | MIC Coagulase Negative Staphylococcus (GC 4547) (Staphylococcus sp.; broth dilution, 18 hours at 35° C., strain GC 4547): >128 µg/mL | MIC Coagulase Negative Staphylococcus (GC 4548) (Staphylococcus sp.; broth dilution, 18 hours at 35° C., strain GC 4548): >128 µg/mL | MIC Coagulase Negative Staphylococcus (GC 4549) (Staphylococcus sp.; broth dilution, 18 hours at 35° C., strain GC 4549): >128 µg/mL | MIC Coagulase Negative Staphylococcus (GC 4551) (Staphylococcus sp.; broth dilution, 18 hours at 35° C., strain GC 4551): >128 µg/mL | MIC Coagulase Negative Staphylococcus (GC 6257) (Staphylococcus sp.; broth dilution, 18 hours at 35° C., strain GC 6257): >128 µg/mL | MIC Staphylococcus aureus (ATCC 29213) (Staphylococcus sp.; strain ATCC 29213, broth dilution, 18 hours at 35° C.): >128 µg/mL | MIC Staphylococcus aureus (GC 1131) (Staphylococcus sp.; strain GC 1131, broth dilution, 18 hours at 35° C.): >128 µg/mL | MIC Staphylococcus aureus (GC 3051) (Staphylococcus sp.; strain GC 3051, broth dilution, 18 hours at 35° C.): >128 µg/mL | MIC Staphylococcus aureus (GC 3053) (Staphylococcus sp.; strain GC 3053, broth dilution, 18 hours at 35° C.): >128 µg/mL | MIC Staphylococcus aureus (GC 4541) (Staphylococcus sp.; strain GC 4541, broth dilution, 18 hours at 35° C.): >128 µg/mL | MIC Staphylococcus aureus (GC 4542) (Staphylococcus sp.; strain GC 4542, broth dilution, 18 hours at 35° C.): >128 µg/mL | MIC Staphylococcus aureus (GC 4544) (Staphylococcus sp.; strain GC 4544, broth dilution, 18 hours at 35° C.): >128 µg/mL | MIC Staphylococcus aureus (GC 4545) (Staphylococcus sp.; strain GC 4545, broth dilution, 18 hours at 35° C.): >128 µg/mL | MIC Enterococcus avium (GC 4558) (Enterococcus sp.; [1]): 128 µg/mL (≈ 93.1 µM) | MIC Enterococcus faecalis (ATCC 29212) (Enterococcus sp.; [1]): >128 µg/mL | MIC Enterococcus faecalis (GC 2242) (Enterococcus sp.; [1]): >128 µg/mL | MIC Enterococcus faecalis (GC 2691) (Enterococcus sp.; [1]): >128 µg/mL | MIC Enterococcus faecalis (GC 3059) (Enterococcus sp.; [1]): >128 µg/mL | MIC Enterococcus faecalis (GC 4552) (Enterococcus sp.; [1]): >128 µg/mL | MIC Enterococcus faecalis (GC 4553) (Enterococcus sp.; [1]): >128 µg/mL | MIC Enterococcus faecalis (GC 4554) (Enterococcus sp.; [1]): >128 µg/mL | MIC Enterococcus faecalis (GC 6189) (Enterococcus sp.; [1]): >128 µg/mL | MIC Enterococcus faecium (GC 2243) (Enterococcus sp.; [1]): >128 µg/mL | MIC Enterococcus faecium (GC 4556) (Enterococcus sp.; [1]): >128 µg/mL | MIC Enterococcus faecium (GC 4557) (Enterococcus sp.; [1]): >128 µg/mL | MIC Enterococcus faecalis (ATCC 29212) (Enterococcus sp.; broth dilution, inoculum 5×10^5 CFU/mL, 18 hours at 35° C., strain ATCC 29212): >128 µg/mL | MIC Enterococcus faecalis (GC 2242) (Enterococcus sp.; broth dilution, inoculum 5×10^5 CFU/mL, 18 hours at 35° C., strain GC 2242): >128 µg/mL | MIC Enterococcus faecium (GC 2243) (Enterococcus sp.; broth dilution, inoculum 5×10^5 CFU/mL, 18 hours at 35° C., strain GC 2243): >128 µg/mL | MIC Enterococcus faecalis (GC 2691) (Enterococcus sp.; broth dilution, inoculum 5×10^5 CFU/mL, 18 hours at 35° C., strain GC 2691): >128 µg/mL | MIC Enterococcus faecalis (GC 3059) (Enterococcus sp.; broth dilution, inoculum 5×10^5 CFU/mL, 18 hours at 35° C., strain GC 3059): >128 µg/mL | MIC Enterococcus faecalis (GC 4552) (Enterococcus sp.; broth dilution, inoculum 5×10^5 CFU/mL, 18 hours at 35° C., strain GC 4552): >128 µg/mL | MIC Enterococcus faecalis (GC 4553) (Enterococcus sp.; broth dilution, inoculum 5×10^5 CFU/mL, 18 hours at 35° C., strain GC 4553): >128 µg/mL | MIC Enterococcus faecalis (GC 4554) (Enterococcus sp.; broth dilution, inoculum 5×10^5 CFU/mL, 18 hours at 35° C., strain GC 4554): >128 µg/mL | MIC Enterococcus faecium (GC 4556) (Enterococcus sp.; broth dilution, inoculum 5×10^5 CFU/mL, 18 hours at 35° C., strain GC 4556): >128 µg/mL | MIC Enterococcus faecium (GC 4557) (Enterococcus sp.; broth dilution, inoculum 5×10^5 CFU/mL, 18 hours at 35° C., strain GC 4557): >128 µg/mL | MIC Enterococcus avium (GC 4558) (Enterococcus sp.; broth dilution, inoculum 5×10^5 CFU/mL, 18 hours at 35° C., strain GC 4558): 128 µg/mL (≈ 93.1 µM) | MIC Enterococcus faecalis (GC 6189) (Enterococcus sp.; broth dilution, inoculum 5×10^5 CFU/mL, 18 hours at 35° C., strain GC 6189): >128 µg/mL | MIC Streptococcus agalactiae (GC 4564) (Streptococcus sp.; [1]): >128 µg/mL | MIC Streptococcus pneumoniae (ATCC 6301) (Streptococcus sp.; [1]): >128 µg/mL | MIC Streptococcus pneumoniae (GC 1894) (Streptococcus sp.; [1]): >128 µg/mL | MIC Streptococcus pneumoniae (GC 4565) (Streptococcus sp.; [1]): >128 µg/mL | MIC Streptococcus pyogenes (GC 4563) (Streptococcus sp.; [1]): >128 µg/mL | MIC Streptococcus pneumoniae (ATCC 6301) (Streptococcus sp.; broth dilution, inoculum 5×10^5 CFU/mL, 18 hours at 35° C., strain ATCC 6301): >128 µg/mL | MIC Streptococcus pneumoniae (GC 1894) (Streptococcus sp.; broth dilution, inoculum 5×10^5 CFU/mL, 18 hours at 35° C., strain GC 1894): >128 µg/mL | MIC Streptococcus pyogenes (GC 4563) (Streptococcus sp.; broth dilution, inoculum 5×10^5 CFU/mL, 18 hours at 35° C., strain GC 4563): >128 µg/mL | MIC Streptococcus agalactiae (GC 4564) (Streptococcus sp.; broth dilution, inoculum 5×10^5 CFU/mL, 18 hours at 35° C., strain GC 4564): >128 µg/mL | MIC Streptococcus pneumoniae (GC 4565) (Streptococcus sp.; broth dilution, inoculum 5×10^5 CFU/mL, 18 hours at 35° C., strain GC 4565): >128 µg/mL
Compound: CC(c1ccccc1)C1NC(=O)CNC(=O)C(CO)NC(=O)C(C(O)C2CNC(=N)N2C2OC(CO)C(O)C3OC(C)(C)OC32)NC(=O)C(C(O)C2CNC(=N)N2)NC(=O)C(Cc2ccc(OC3OC(CO)C(OC4OC(CO)C(O)C(O)C4O)C4OC(C)(C)OC34)cc2)NC1=O (stereo not shown) [Example 229]
MIC Staphylococcus haemolyticus (GC 4546) (Staphylococcus sp.; [1]): >128 µg/mL | MIC Staphylococcus haemolyticus (GC 4546) (Staphylococcus sp.; broth dilution, 18 hours at 35° C., strain GC 4546): >128 µg/mL

Compound: Cyclo[3-[[2-(2,3,4,6-tetra-O-benzoylhexopyranosyl)amino]-1,3-benzoxazol-5-yl]alanyl-3-(2-iminoimidazolidin-4-yl)seryl-3-(3-hexopyranosyl-2-iminoimidazolidin 4-yl)seryl-serylglycyl-β-methylphenylalanyl] [Example 44]
MIC Escherichia coli (ATCC 25922) (Escherichia coli): >64 µg/mL | MIC Escherichia coli (GC 4559) (Escherichia coli): >64 µg/mL | MIC Escherichia coli (GC 4560) (Escherichia coli): 64 µg/mL | MIC Coagulase Negative Staphylococcus (GC 4547) (Staphylococcus sp.): 64 µg/mL | MIC Coagulase Negative Staphylococcus (GC 4548) (Staphylococcus sp.): 8 µg/mL | MIC Coagulase Negative Staphylococcus (GC 4549) (Staphylococcus sp.): 2 µg/mL | MIC Coagulase Negative Staphylococcus (GC 4551) (Staphylococcus sp.): 16 µg/mL | MIC Coagulase Negative Staphylococcus (GC 6257) (Staphylococcus sp.): 8 µg/mL | MIC Staphylococcus aureus (ATCC 29213) (Staphylococcus sp.): 64 µg/mL | MIC Staphylococcus aureus (GC 1131) (Staphylococcus sp.): 64 µg/mL | MIC Staphylococcus aureus (GC 3051) (Staphylococcus sp.): 64 µg/mL | MIC Staphylococcus aureus (GC 3053) (Staphylococcus sp.): 32 µg/mL | MIC Staphylococcus aureus (GC 4541) (Staphylococcus sp.): 64 µg/mL | MIC Staphylococcus aureus (GC 4542) (Staphylococcus sp.): 64 µg/mL | MIC Staphylococcus aureus (GC 4544) (Staphylococcus sp.): 16 µg/mL | MIC Staphylococcus aureus (GC 4545) (Staphylococcus sp.): 16 µg/mL | MIC Staphylococcus aureus-SMITH (GC 4543) (Staphylococcus sp.): 32 µg/mL | MIC Staphylococcus haemolyticus (GC 4546) (Staphylococcus sp.): 64 µg/mL | MIC Enterococcus avium (GC 4558) (Enterococcus sp.): 4 µg/mL | MIC Enterococcus faecalis (ATCC 29212) (Enterococcus sp.): 16 µg/mL | MIC Enterococcus faecalis (GC 2242) (Enterococcus sp.): 16 µg/mL | MIC Enterococcus faecalis (GC 2691) (Enterococcus sp.): 16 µg/mL | MIC Enterococcus faecalis (GC 3059) (Enterococcus sp.): 32 µg/mL | MIC Enterococcus faecalis (GC 4552) (Enterococcus sp.): 16 µg/mL | MIC Enterococcus faecalis (GC 4553) (Enterococcus sp.): 8 µg/mL | MIC Enterococcus faecalis (GC 4554) (Enterococcus sp.): 32 µg/mL | MIC Enterococcus faecalis (GC 6189) (Enterococcus sp.): 16 µg/mL | MIC Enterococcus faecium (GC 2243) (Enterococcus sp.): 8 µg/mL | MIC Enterococcus faecium (GC 4556) (Enterococcus sp.): 32 µg/mL | MIC Enterococcus faecium (GC 4557) (Enterococcus sp.): 8 µg/mL | MIC Streptococcus agalactiae (GC 4564) (Streptococcus sp.): 16 µg/mL | MIC Streptococcus pneumoniae (ATCC 6301) (Streptococcus sp.): 8 µg/mL | MIC Streptococcus pneumoniae (GC 1894) (Streptococcus sp.): 16 µg/mL | MIC Streptococcus pneumoniae (GC 4565) (Streptococcus sp.): 32 µg/mL | MIC Streptococcus pyogenes (GC 4563) (Streptococcus sp.): 4 µg/mL
